ChEMBL document CHEMBL1201862, “PubChem BioAssay data set” (2004)
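Compound exposure: 48 hours, 5 concentrations, 96-well plates. The concentration for 50% growth inhibition is given as GI50.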 Active and inactive are the calls of the source. Cut-off read from the data, not from the text of the source: active = GI50 up to about 1.1 µM and inactive = higher.

Key:
Assay in all cases: NCI tumour cell line growth inhibition, 48 h
786-0 = system: 786-0
A549 = system: A549
ACHN = system: ACHN
BT-549 = system: BT-549
CCRF-CEM = system: CCRF-CEM
COLO 205 = system: COLO 205
HOP-92 = system: HOP-92
LOX IMVI = system: LOX IMVI
MCF7 = system: MCF7
MDA-MB-231 = system: MDA-MB-231
NCI-H226 = system: NCI-H226
NCI-H23 = system: NCI-H23
NCI-H522 = system: NCI-H522
OVCAR-4 = system: OVCAR-4
OVCAR-5 = system: OVCAR-5
SK-MEL-5 = system: SK-MEL-5
UACC-257 = system: UACC-257
UACC-62 = system: UACC-62
OVCAR-3 = system: OVCAR-3

Measured: GI50

COC1=CC23CCCN2CCc2cc4c(cc2C3C1O)OCO4 (stereo unspecified)
inactive: 786-0 44.9 µM | A549 36.4 µM | ACHN 22.3 µM | BT-549 > 100 µM | CCRF-CEM 41.2 µM | COLO 205 24.5 µM | HOP-92 > 100 µM | LOX IMVI 37.1 µM | MCF7 48.5 µM | MDA-MB-231 > 100 µM | NCI-H226 > 100 µM | NCI-H23 62.8 µM | NCI-H522 29.2 µM | OVCAR-4 44.6 µM | OVCAR-5 > 100 µM | SK-MEL-5 20 µM | UACC-257 > 100 µM | UACC-62 > 100 µM

CCN(CC)CCn1ncc2c(N)ncnc21
inactive: 786-0 > 100 µM | A549 > 100 µM | ACHN > 100 µM | BT-549 > 100 µM | CCRF-CEM 34.7 µM | COLO 205 > 100 µM | HOP-92 > 100 µM | LOX IMVI > 100 µM | MCF7 > 100 µM | MDA-MB-231 > 100 µM | NCI-H226 > 100 µM | NCI-H23 > 100 µM | NCI-H522 > 100 µM | OVCAR-3 > 100 µM | OVCAR-4 > 100 µM | OVCAR-5 > 100 µM | SK-MEL-5 > 100 µM | UACC-62 > 100 µM

CCC1(CC)C(=O)NN(C(=O)c2ccccc2)C1=O
inactive: 786-0 > 100 µM | A549 > 100 µM | ACHN > 100 µM | BT-549 > 100 µM | CCRF-CEM 95.7 µM | COLO 205 > 100 µM | LOX IMVI > 100 µM | MCF7 > 100 µM | MDA-MB-231 > 100 µM | NCI-H226 > 100 µM | NCI-H23 > 100 µM | NCI-H522 > 100 µM | OVCAR-3 > 100 µM | OVCAR-4 > 100 µM | OVCAR-5 > 100 µM | SK-MEL-5 > 100 µM | UACC-257 > 100 µM | UACC-62 > 100 µM

CC(CCCC1SCC2NC(=O)NC21)C(=O)O (stereo unspecified)
inactive: 786-0 > 100 µM | A549 > 100 µM | ACHN > 100 µM | BT-549 > 100 µM | COLO 205 > 100 µM | HOP-92 > 100 µM | LOX IMVI > 100 µM | MCF7 > 100 µM | MDA-MB-231 > 100 µM | NCI-H226 > 100 µM | NCI-H23 > 100 µM | NCI-H522 > 100 µM | OVCAR-3 > 100 µM | OVCAR-4 > 100 µM | OVCAR-5 > 100 µM | SK-MEL-5 > 100 µM | UACC-62 > 100 µM

COC(=O)C1=CN(C2CCCCC2)C2(c3ccccc3)c3ccccc3C(=O)OC(=O)C12 (stereo unspecified)
inactive: 786-0 > 100 µM | A549 95.5 µM | ACHN > 100 µM | BT-549 > 100 µM | CCRF-CEM > 100 µM | COLO 205 72.8 µM | HOP-92 39 µM | LOX IMVI 42.3 µM | MCF7 > 100 µM | MDA-MB-231 34.7 µM | NCI-H226 > 100 µM | NCI-H23 > 100 µM | NCI-H522 > 100 µM | OVCAR-3 > 100 µM | OVCAR-4 > 100 µM | OVCAR-5 > 100 µM | SK-MEL-5 > 100 µM | UACC-257 49.2 µM

C[C@]12CCC(=O)C=C1CC[C@@H]1C2CC[C@]2(C)c3nn(-c4ccc(F)cc4)nc3CC12 (stereo partly specified)
inactive: 786-0 50.4 µM | A549 > 100 µM | ACHN > 100 µM | BT-549 > 100 µM | CCRF-CEM > 100 µM | COLO 205 > 100 µM | HOP-92 61.1 µM | MCF7 > 100 µM | MDA-MB-231 > 100 µM | NCI-H226 > 100 µM | NCI-H23 > 100 µM | NCI-H522 > 100 µM | OVCAR-3 > 100 µM | OVCAR-4 49.3 µM | OVCAR-5 > 100 µM | SK-MEL-5 > 100 µM | UACC-257 > 100 µM | UACC-62 > 100 µM

CCOC(=O)NC(Nc1cccc(F)c1)(C(F)(F)F)C(F)(F)F
inactive: 786-0 > 100 µM | A549 > 100 µM | ACHN > 100 µM | BT-549 > 100 µM | CCRF-CEM > 100 µM | COLO 205 > 100 µM | HOP-92 > 100 µM | LOX IMVI > 100 µM | MCF7 > 100 µM | MDA-MB-231 > 100 µM | NCI-H226 > 100 µM | NCI-H23 > 100 µM | NCI-H522 > 100 µM | OVCAR-3 > 100 µM | OVCAR-5 > 100 µM | SK-MEL-5 > 100 µM | UACC-257 > 100 µM | UACC-62 86.5 µM

N#Cc1c(-c2ccc(Cl)cc2Cl)nc2[nH]nc(S)n2c1=O
inactive: 786-0 > 100 µM | A549 > 100 µM | ACHN > 100 µM | BT-549 > 100 µM | CCRF-CEM > 100 µM | COLO 205 > 100 µM | HOP-92 > 100 µM | LOX IMVI > 100 µM | MCF7 > 100 µM | MDA-MB-231 > 100 µM | NCI-H226 > 100 µM | NCI-H23 > 100 µM | NCI-H522 > 100 µM | OVCAR-4 > 100 µM | OVCAR-5 > 100 µM | SK-MEL-5 > 100 µM | UACC-257 > 100 µM | UACC-62 > 100 µM

COC(=O)c1c(O)ccc2c1c1c(n2Cc2ccccc2OC)C(=O)c2ccccc2C1=O
inactive: 786-0 11.4 µM | A549 5.64 µM | ACHN 7.53 µM | BT-549 13.3 µM | CCRF-CEM 3.13 µM | COLO 205 1.83 µM | HOP-92 3.78 µM | LOX IMVI 10.6 µM | MCF7 6.34 µM | MDA-MB-231 13.5 µM | NCI-H226 15.3 µM | NCI-H23 14.1 µM | NCI-H522 11 µM | OVCAR-3 10 µM | OVCAR-4 11.7 µM | OVCAR-5 21.1 µM | SK-MEL-5 13.1 µM | UACC-257 22.9 µM

Cc1cc2c(c(C(=O)NCC(=O)O)c1)Oc1c(cc(C)cc1C(=O)NCC(=O)O)S2
inactive: 786-0 > 100 µM | A549 > 100 µM | ACHN > 100 µM | BT-549 > 100 µM | CCRF-CEM > 100 µM | COLO 205 > 100 µM | HOP-92 > 100 µM | LOX IMVI > 100 µM | MCF7 > 100 µM | MDA-MB-231 > 100 µM | NCI-H226 > 100 µM | NCI-H23 > 100 µM | NCI-H522 > 100 µM | OVCAR-3 > 100 µM | OVCAR-4 > 100 µM | OVCAR-5 > 100 µM | UACC-257 > 100 µM | UACC-62 > 100 µM

Cn1c(-c2ccc(/N=N/Nc3ccc(-c4n[nH]c(=S)n4C)cc3)cc2)n[nH]c1=S
inactive: 786-0 52 µM | A549 > 100 µM | ACHN 1.99 µM | BT-549 3.9 µM | CCRF-CEM 3.98 µM | COLO 205 56 µM | HOP-92 2.91 µM | LOX IMVI 16.4 µM | MCF7 12.1 µM | MDA-MB-231 18.8 µM | NCI-H226 5.36 µM | NCI-H23 7.8 µM | NCI-H522 4.05 µM | OVCAR-3 33.3 µM | OVCAR-4 > 100 µM | OVCAR-5 > 100 µM | SK-MEL-5 3.01 µM | UACC-257 > 100 µM

Clc1nc(NCCc2ccccc2)c2ncn(-c3ccccc3)c2n1
inactive: 786-0 16.9 µM | A549 26.4 µM | ACHN 29.4 µM | BT-549 23.1 µM | COLO 205 23.2 µM | LOX IMVI 21.3 µM | MCF7 24.9 µM | MDA-MB-231 21.8 µM | NCI-H226 24.1 µM | NCI-H23 25.6 µM | NCI-H522 16 µM | OVCAR-3 25.2 µM | OVCAR-4 14.1 µM | OVCAR-5 37.9 µM | SK-MEL-5 18.5 µM | UACC-257 15.8 µM | UACC-62 20.8 µM

Cc1cc(N(CCC#N)CCC#N)ccc1C(/N=N/c1ccc(C(=O)O)cc1)=N\NC(=O)c1ccccc1
inactive: 786-0 41.3 µM | A549 25.8 µM | ACHN 59.7 µM | BT-549 55.6 µM | CCRF-CEM 30.4 µM | COLO 205 28.5 µM | MCF7 22.8 µM | MDA-MB-231 57.8 µM | NCI-H226 40.9 µM | NCI-H23 17.7 µM | NCI-H522 13.2 µM | OVCAR-3 > 10 µM | OVCAR-4 > 100 µM | OVCAR-5 > 100 µM | SK-MEL-5 19.5 µM | UACC-257 65.2 µM | UACC-62 39.8 µM

NS(=O)(=O)c1nnc(NS(=O)(=O)c2ccccc2C(=O)O)s1
inactive: 786-0 > 100 µM | A549 > 100 µM | ACHN > 100 µM | BT-549 > 100 µM | COLO 205 > 100 µM | HOP-92 > 100 µM | LOX IMVI > 100 µM | MCF7 > 100 µM | MDA-MB-231 > 100 µM | NCI-H226 > 100 µM | NCI-H23 > 100 µM | NCI-H522 > 100 µM | OVCAR-3 > 100 µM | OVCAR-4 > 100 µM | OVCAR-5 > 100 µM | SK-MEL-5 > 100 µM | UACC-257 > 100 µM | UACC-62 > 100 µM

COc1cc2c(cc1C)NC(=O)/C2=C/c1c(Cl)[nH]c2ccccc12
inactive: 786-0 6.21 µM | A549 6.05 µM | ACHN 10.6 µM | BT-549 2.74 µM | CCRF-CEM 3.56 µM | COLO 205 2.92 µM | HOP-92 11.2 µM | LOX IMVI 4.48 µM | MCF7 3.8 µM | MDA-MB-231 3.95 µM | NCI-H23 10.1 µM | NCI-H522 6.75 µM | OVCAR-3 2.26 µM | OVCAR-5 7.87 µM | SK-MEL-5 3.15 µM | UACC-257 10.7 µM | UACC-62 3.57 µM
